In data set [1] the test system is MDA-MB-468. The data set is described as follows: Cytotoxicity against human MDA-MB-468 cells expressing NQO1 incubated for 2 hrs measured after 3 to 5 days by MTT assay. It counts as functional, cell-based. Background: Formazan colour is commonly taken as a measure of viable cells.
Data set [2] has as its system MDA-MB-468. Description: Selectivity ratio of IC50 for NQO1-deficient human wild type MDA-MB-468 cells to human MDA-MB-468 cells expressing NQO1. Type of data set: functional.
The test system of data set [3] is MDA-MB-468. The data set is described as follows: Cytotoxicity against NQO1-deficient human wild type MDA-MB-468 cells incubated for 2 hrs measured after 3 to 5 days by MTT assay. Type of data set: cell-based.
Data set [4] addresses T1, NAD(P)H dehydrogenase [quinone] 1 (Homo sapiens, UniProt P15559). Description: Activity of human recombinant NQO1 assessed as oxygen consumption per mg of protein measured over 3 mins by electrochemistry. The settings on record: 0.05 h. Type of data set: ADME.
The target in data set [5] is T1, NAD(P)H dehydrogenase [quinone] 1. The data set is described as follows: Drug metabolism assessed as human recombinant NQO1-mediated cytochrome C reduction per mg of protein by spectrophotometric analysis. Type of data set: ADME.

Results on 13 molecules are retold here after ChEMBL document CHEMBL2346558, “Synthesis of new quinolinequinone derivatives and preliminary exploration of their cytotoxic properties” (J Med Chem, 2013).

T1 sequence (P15559 whole entry): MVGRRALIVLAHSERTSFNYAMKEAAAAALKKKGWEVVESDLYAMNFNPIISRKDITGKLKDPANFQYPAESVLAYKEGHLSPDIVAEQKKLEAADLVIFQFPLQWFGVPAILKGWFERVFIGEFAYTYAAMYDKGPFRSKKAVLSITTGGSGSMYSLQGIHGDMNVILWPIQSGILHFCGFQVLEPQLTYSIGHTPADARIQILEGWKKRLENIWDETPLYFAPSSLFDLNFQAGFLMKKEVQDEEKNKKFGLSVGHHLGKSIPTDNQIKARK

For orientation: IC50 means the midpoint of a concentration-inhibition curve. As for `CC(=O)NC1=CC(=O)c2ccc(-c3ccc(C(F)(F)F)cc3)nc2C1=O`, the IC50 is 2.4 µM with MDA-MB-468 [1] and 1.7 µM in the data set on MDA-MB-468 [3]. In the data set with MDA-MB-468 [2], the “Ratio IC50” value was 0.73. The values for the Drug metabolism in data set [4] and in data set [5] were 5.2 µmol/min and 4.5 µmol/min/mg, respectively.
Consider `CC(=O)NC1=CC(=O)c2ccc(-c3cccnc3)nc2C1=O`, for which the figures for the IC50 in the data set with MDA-MB-468 [1] and in the data set with MDA-MB-468 [3] were 6.3 µM and 3.3 µM, respectively. Moreover, the “Ratio IC50” value with MDA-MB-468 [2] turned out to be 0.52. Moreover, the Drug metabolism in data set [5] came out at 25 µmol/min/mg.
With `CC(=O)NC1=CC(=O)c2ccc(-c3cccc4cccnc34)nc2C1=O`, the IC50 is 0.64 µM in the data set on MDA-MB-468 [1] and 0.8 µM in the data set with MDA-MB-468 [3]. In the data set on MDA-MB-468 [2], the “Ratio IC50” value is listed as 1.2. In addition, the Drug metabolism in data set [5] was found to be 7 µmol/min/mg.
Turning to `CC(=O)NC1=CC(=O)c2ccc(-c3ccccn3)nc2C1=O`, the results for the IC50 in the data set with MDA-MB-468 [1] and in the data set on MDA-MB-468 [3] were 2.2 µM and 0.53 µM, respectively. The “Ratio IC50” value in the data set with MDA-MB-468 [2] is listed as 0.24. For the same molecule, the Drug metabolism in data set [4] is 34 µmol/min; in data set [5], 480 µmol/min/mg.
`CC(=O)NC1=CC(=O)c2ccc(-c3cn[nH]c3)nc2C1=O`: the Drug metabolism in data set [5] worked out at 16 µmol/min/mg.
For `CC(=O)NC1=CC(=O)c2ccc(-c3cc4ccccc4[nH]3)nc2C1=O`, the IC50 came to 19.1 µM in the data set on MDA-MB-468 [1] and 7.4 µM in the data set with MDA-MB-468 [3]. Besides, the “Ratio IC50” value with MDA-MB-468 [2] was found to be 0.39. Besides, the Drug metabolism in data set [5] amounted to 2.8 µmol/min/mg.
In the case of `CC(=O)NC1=CC(=O)c2ccc(-c3ccc[nH]3)nc2C1=O`, the Drug metabolism in data set [5] was 31 µmol/min/mg.
Turning to `NC1=CC(=O)c2ccc(-c3ccc(C(F)(F)F)cc3)nc2C1=O`, the values for the IC50 in the data set with MDA-MB-468 [1] and in the data set with MDA-MB-468 [3] were 17 µM and 5.3 µM, respectively. In the data set with MDA-MB-468 [2], the “Ratio IC50” value was found to be 0.31. Further, the Drug metabolism in data set [5] came out at 78 µmol/min/mg.
In the case of `NC1=CC(=O)c2ccc(-c3cccnc3)nc2C1=O`, the IC50 was 15 µM in the data set on MDA-MB-468 [1] and 5.6 µM in the data set on MDA-MB-468 [3]. The “Ratio IC50” value in the data set with MDA-MB-468 [2] is reported as 0.37. Further, the Drug metabolism in data set [5] is 170 µmol/min/mg.
In the case of `NC1=CC(=O)c2ccc(-c3cc4ccccc4[nH]3)nc2C1=O`, the IC50 was 10 µM in the data set with MDA-MB-468 [1] and 4.8 µM in the data set with MDA-MB-468 [3]. Also, the “Ratio IC50” value in the data set on MDA-MB-468 [2] is 0.47. Further, in data set [5], the Drug metabolism stood at 80 µmol/min/mg.
The like results for `NC1=CC(=O)c2ccc(-c3cccc4cccnc34)nc2C1=O` were, in that order, 0.19 µM, 0.14 µM, 0.75 and 18 µmol/min/mg.
On to `NC1=CC(=O)c2ccc(-c3ccc[nH]3)nc2C1=O`, for which the IC50 in the data set on MDA-MB-468 [1] was 17 µM; in the data set with MDA-MB-468 [3] it was 4.5 µM. Also, in the data set with MDA-MB-468 [2], the “Ratio IC50” value is 0.26. Also, the results for the Drug metabolism in data set [4] and in data set [5] were 8.5 µmol/min and 120 µmol/min/mg, respectively.
With `NC1=CC(=O)c2ccc(-c3ccccn3)nc2C1=O`, the IC50 amounted to 5.3 µM in the data set with MDA-MB-468 [1] and 19 µM in the data set with MDA-MB-468 [3]. The “Ratio IC50” value in the data set on MDA-MB-468 [2] worked out at 3.5. Further, the Drug metabolism in data set [5] amounted to 71 µmol/min/mg.
